Reference: US10688087B2, “Pharmaceutical compositions and therapeutic methods employing a combination of a manganese complex compound and a non-manganese complex form of the compound” (PLEDPHARMA AB, priority 2009, dated 2020)

Key:
[1] = rats, i.v.; for effect on 0-24 h Zn excretion: 10 μmol/kg MnDPDP alone, with 20 μmol/kg b.w. DPDP, or 10 μmol/kg b.w. DPDP, n=2
Experimental: 10 male Wistar rats (approximately 250 g) were injected intravenously, via one of the tail veins, with either 0, 0.125, 0.250, 0.500 or 0.750 ml of a 10 mM DPDP formulation, corresponding to 0, 5, 10, 20 and 30 μmol/kg b.w. […] After injection, the rats were immediately placed in metabolic cages for urine collection over a period of 0-24 hours. The urine samples were then stored at −80° C. until Zn and Mn analyses. Before analyses, the samples were thawed and extensively shaken to obtain homogenous samples. A five ml aliquot was taken from each sample and 5 ml concentrated nitric acid was added. The samples were then resolved in a microwave oven and thereafter diluted with distilled water to a final volume of 50 ml. The zinc (Zn) and manganese (Mn) content of each sample were analyzed by ICP-MS. Results are presented as total 0-24 h urine Zn and Mn content (expressed as μmol/kg b.w.±S.E.M.).

[2] = Literature pharmacokinetics of i.v. MnDPDP (Toft et al., 1997): manganese release, urine Mn and Zn, metabolism; format: in vivo; conditions: humans, 10 μmol/kg b.w., rough recalculation of data of Toft et al.
[3] = rats, i.v.
Experimental: After injection, the rats were immediately placed in metabolic cages for urine collection over a period of 0-24 hours. To obtain basal content of manganese (Mn) in urine, two additional (control) rats were placed in metabolic cages for urine collection over the same period of time. The urine samples were then stored at −80° C. until Mn analysis. Before analysis, the samples were thawed and extensively shaken to obtain homogenous samples. A five ml aliquot was taken from each sample and 5 ml concentrated nitric acid was added. The samples were then resolved in a microwave oven and thereafter diluted with distilled water to a final volume of 50 ml. The Mn content of each sample was analyzed by ICP-MS (Inductively Coupled Plasma Mass Spectrometry). […] This sample was treated in an identical manner to that of the urine samples and analyzed for its Mn content. Results are presented as total 0-24 h urine Mn content (expressed as μmol/kg±S.E.M.) and as percentage (±S.E.M.) of the injected dose. The statistical difference between animals receiving MnDPDP alone and animals receiving MnDPDP and DPDP, with respect to excretion of manganese into the urine, was tested by an unpaired Student's t-test. A p-value lower than 0.05 was considered as a statistically significant difference.

[4] = rat, in vivo, ip
Experimental: Twenty-four hours later, the rats were killed and the brains were dissected out and stored at −80° C. until Mn analysis. […] Before analysis, each brain was resolved in 5 ml concentrated nitric acid plus 3 ml distilled water in a microwave oven, and thereafter diluted with distilled water to a final volume of 50 ml. The Mn and Zn content of each sample was analyzed by ICP-MS. Results are expressed as μg/g brain wet weight±S.E.M and percentage increase in Mn brain content. […] A p-value lower than 0.05 was considered as a statistically significant difference.

white blood cells [5] = conditions: mice, 10 mg/kg b.w. MnDPDP (Alexandre et al., 2006); cited from earlier work
[6] = i.v., 10 μmol/kg b.w.; humans (Toft et al.) and rats (Hustvedt et al.); cited from earlier work
white blood cells [7] = assay: Paclitaxel-induced myelosuppression (leucopenia) in mice, blood cell counts (Example 5); format: in vivo, BALB/c female mice; conditions: i.p., paclitaxel 20 mg/kg b.w. on days 0, 2, 4, blood day 10
Experimental: To test the therapeutic efficacy, initial experiments were conducted in BALB/c female mice (15-20 g), as described by Alexandre et al., JNCI 2006; 98:236-244).
Five mice were treated in each group. Paclitaxel was administered on days 0, 2, and 4. […] Ten days after the first injection the mice were anesthetized and blood samples were withdrawn by heart puncture into EDTA-tubes and blood cell counting (including white blood cell count (WBC); absolute neutrophil (ANC), monocyte and lymphocyte count) was conducted on a CELL-DYN Sapphire analyzer, after the blood samples had been diluted 1:1. Some samples had to be discarded because of clotting but all groups included at least blood from 3 animals.

Row | Structure (SMILES) | effect of increasing doses of DPDP on 0-24 h Mn excretion ([1]; 0-30 μmol/kg b.w. DPDP) | effect on 0-24 h Zn excretion [1] | 0-24 h Zn excretion (saturation level) ([1]; at a dose of 10 μmol/kg b.w. DPDP) | renal zinc excretion [2] | amount of manganese released from the complex ([3]; as exemplified by Example 1) [%] | Mn excretion in urine during 0-24 h as percentage of the injected dose ([3]; 0.25 ml 10 mM MnDPDP ± 0.5 ml 10 mM DPDP, mean±S.E.M., n=7) [%] | Zn brain content [4] | percentage increase in brain Mn [4] [%] | amount of zinc in the urine up to 24 hours ([1]; 10 μmol/kg b.w. MnDPDP) | protection against paclitaxel-induced leucopenia (white blood cells [5]) | manganese originating from the chelator that comes out in the urine [6] [%] | reduction of the various white blood cells (white blood cells [7]) [%]
1 | Cc1ncc(COP(=O)(O)O)c(CN(CCN(CC(=O)O)Cc2c(COP(=O)(O)O)cnc(C)c2O)CC(=O)O)c1O [DPDP, N,N′-bis-(pyridoxal-5-phosphate)-ethylenediamine-N,N′-diacetic acid] | just minor effects | doubles the zinc excretion | around 4 μmol/kg |  |  |  |  |  |  |  |  | 
2 | Cc1ncc(COP(=O)(O)O)c(CN(CCN(CC(=O)O)Cc2c(COP(=O)(O)O)cnc(C)c2O)CC(=O)O)c1O.[Mn] [MnDPDP, Manganese N,N′-bis-(pyridoxal-5-phosphate)-ethylenediamine-N,N′-diacetic acid] |  | relatively small effect |  | approximately 3 μmol/kg b.w. | 85 | 15.7±1.1 | identical | 23.5 | about 2 μmol/kg b.w. | effectively protect | ≤ 20 | 
3 | CC(=O)O[C@H]1C(=O)[C@@]2(C)[C@H]([C@H](OC(=O)c3ccccc3)[C@]3(O)C[C@H](OC(=O)[C@H](O)[C@@H](NC(=O)c4ccccc4)c4ccccc4)C(C)=C1C3(C)C)[C@]1(OC(C)=O)CO[C@@H]1C[C@@H]2O [Paclitaxel, paclitaxel] |  |  |  |  |  |  |  |  |  |  |  | ~50
